Patent publication US10155765B2, “Carboxamide inhibitors of IRAK4 activity” (MERCK SHARP & DOHME CORP., priority 2015, dated 2018)
Counter-ions that a name gives are not always drawn.

Molecular target: IRAK4 (Homo sapiens (Human), UniProt Q9NWZ3)
Assay: IRAK4 Kinase Assay (IMAP fluorescence polarization)
Type: biochemical
Details: GST tagged IRAK4, 100 μM ATP, 30 minutes at 25° C., IMAP FP
Description: Other assays are known in the literature and could be readily performed by those of skill in the art.
The reaction is initiated by the addition of ATP.

Sequence of IRAK4 (Q9NWZ3 whole entry): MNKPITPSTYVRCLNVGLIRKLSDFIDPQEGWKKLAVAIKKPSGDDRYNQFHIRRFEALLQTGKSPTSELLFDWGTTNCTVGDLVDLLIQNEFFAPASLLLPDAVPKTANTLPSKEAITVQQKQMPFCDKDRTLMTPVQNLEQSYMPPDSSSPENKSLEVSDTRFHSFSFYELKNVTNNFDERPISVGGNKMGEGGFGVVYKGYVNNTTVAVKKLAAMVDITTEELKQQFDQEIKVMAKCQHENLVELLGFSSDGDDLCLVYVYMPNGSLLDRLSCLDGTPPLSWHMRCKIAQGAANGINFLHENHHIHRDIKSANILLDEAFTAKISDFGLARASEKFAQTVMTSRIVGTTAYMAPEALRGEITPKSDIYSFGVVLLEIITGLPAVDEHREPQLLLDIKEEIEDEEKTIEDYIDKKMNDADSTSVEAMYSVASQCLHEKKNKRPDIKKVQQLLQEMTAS

Structure (SMILES) | IC50 [nM]
NC(=O)c1sccc1NC(=O)c1cnn2cccnc12 [Example 50, N-(2-carbamoylthiophen-3-yl)pyrazolo[1,5-a]pyrimidine-3-carboxamide hydrochloride] | 3500
Cn1cc(NC(=O)c2ccc3cnc(N[C@@H]4CCCC[C@@H]4N)nn23)c(C(N)=O)n1 [Example 61, 2-{[(1R,2S)-2-aminocyclohexyl]amino}-N-(3-carbamoyl-1-methyl-1H-pyrazol-4-yl)pyrrolo[2,1-f][1,2,41triazine-7-carboxamide trifluoroacetate] | 0.7
Cn1cc(NC(=O)c2cnn3ccc(NC4CCCCC4O)nc23)c(C(N)=O)n1 (stereo not drawn) [Example 27, N-(3-carbamoyl-1-methyl-1H-pyrazol-4-yl)-5-[(2-hydroxycyclohexyl)amino]pyrazolo[1,5-a]pyrimidine-3-carboxamide] | 210
CS(=O)(=O)N1CCC(n2cc(NC(=O)c3cnn4cccnc34)c(C(N)=O)n2)CC1 [Example 48, N-{3-carbamoyl-1-[1-(methylsulfonyl)piperidin-4-yl]-1H-pyrazol-4-yl}pyrazolo[1,5-a]pyrimidine-3-carboxamide] | 650
NC(=O)Cn1cc(NC(=O)c2cnn3ccc(N[C@@H]4CCCC[C@@H]4N)nc23)c(C(N)=O)n1 [Example 32, 5-{[(1R,2S)-2-Aminocyclohexyl]amino}-N-[1-(2-amino-2-oxoethyl)-3-carbamoyl-1H-pyrazol-4-yl]pyrazolo[1,5-a]pyrimidine-3-carboxamide] | 3
NC(=O)c1n[nH]cc1NC(=O)c1cnn2cccnc12 [Example 53, N-(3-carbamoyl-1H-pyrazol-4-yl)pyrazolo[1,5-a]pyrimidine-3-carboxamide trifluoroacetate] | 700
Cn1cc(NC(=O)c2cnn3ccc(NC4CCCNC4)nc23)c(C(N)=O)n1 (stereo not drawn) [Example 15, N-(3-carbamoyl-1-methyl-1H-pyrazol-4-yl)-5-(piperidin-3-ylamino)pyrazolo[1,5-a]pyrimidine-3-carboxamide hydrochloride] | 33
CCn1cc(NC(=O)c2ccc3cnc(N[C@@H]4CCCC[C@@H]4N)nn23)c(C(N)=O)n1 [Example 62, 2-{[(1R,2S)-2-aminocyclohexyl]amino}-N-(3-carbamoyl-1-ethyl-1H-pyrazol-4-yl)pyrrolo[2,1-f][1,2,41triazine-7-carboxamide trifluoroacetate] | 1
COCCn1cc(NC(=O)c2ccc3cnc(N[C@@H]4CCCC[C@@H]4N)nn23)c(C(N)=O)n1 [Example 66, 2-{[(1R,2S)-2-aminocyclohexyl]amino}-N-[3-carbamoyl-1-(2-methoxyethyl)-1H-pyrazol-4-yl]pyrrolo[2,1-f][1,2,4]triazine-7-carboxamide trifluoroacetate] | 6
CN1CCCC(n2cc(NC(=O)c3cnn4ccc(N[C@H]5CCCC[C@H]5N)nc34)c(C(N)=O)n2)C1 (relative stereo) [Example 10, 5-{[cis-2-aminocyclohexyl]amino}-N-[3-carbamoyl-1-(1-methylpiperidin-3-yl)-1H-pyrazol-4-yl]pyrazolo[1,5-a]pyrimidine-3-carboxamide trifluoroacetate] | 25
CS(=O)(=O)N1CCC(n2cc(NC(=O)c3cnn4ccc(N[C@H]5CCCC[C@H]5N)nc34)c(C(N)=O)n2)CC1 (relative stereo) [Example 18, 5-{[cis-2-Aminocyclohexyl]amino}-N-{3-carbamoyl-1-[1-(methylsulfonyl)piperidin-4-yl]-1H-pyrazol-4-yl}pyrazolo[1,5-a]pyrimidine-3-carboxamide] | 2
NC(=O)c1ccccc1NC(=O)c1cnn2cccnc12 [Example 52, N-(2-carbamoylphenyl)pyrazolo[1,5-a]pyrimidine-3-carboxamide hydrochloride] | 7600
CN(C)C(=O)c1nn(C)cc1NC(=O)c1cnn2ccc(N[C@H]3CCCC[C@H]3N)nc12 (relative stereo) [Example 17, 5-{[cis-2-aminocyclohexyl]amino}-N-[3-(dimethylcarbamoyl)-1-methyl-1H-pyrazol-4-yl]pyrazolo[1,5-a]pyrimidine-3-carboxamide trifluoroacetate] | 150
NC(=O)c1cnccc1NC(=O)c1cnn2cccnc12 [Example 49, N-(3-carbamoylpyridin-4-yl)pyrazolo[1,5-a]pyrimidine-3-carboxamide hydrochloride] | 710
Cn1cc(NC(=O)c2cnn3ccc(NC4CCNC4)nc23)c(C(N)=O)n1 (stereo not drawn) [Example 14, N-(3-carbamoyl-1-methyl-1H-pyrazol-4-yl)-5-(pyrrolidin-3-ylamino)pyrazolo[1,5-a]pyrimidine-3-carboxamide hydrochloride] | 120
CC(C)(C)c1cc(NC(=O)c2cnn3cccnc23)c(C(N)=O)s1 [Example 51, N-(5-tert-butyl-2-carbamoylthiophen-3-yl)pyrazolo[1,5-a]pyrimidine-3-carboxamide hydrochloride] | 8500
CNC(=O)c1nn(C)cc1NC(=O)c1cnn2ccc(N[C@H]3CCCC[C@H]3N)nc12 (relative stereo) [Example 16, 5-{[cis-2-aminocyclohexyl]amino}-N-[1-methyl-3-(methylcarbamoyl)-1H-pyrazol-4-yl]pyrazolo[1,5-a]pyrimidine-3-carboxamide trifluoroacetate] | 18
Cn1cc(NC(=O)c2cnn3ccc(N[C@H]4COCC[C@H]4N)nc23)c(C(N)=O)n1 [Example 1, 5-(((3R,4R)-4-Aminotetrahydro-2H-pyran-3-yl)amino)-N-(3-carbamoyl-1-methyl-1H-pyrazol-4-yl)pyrazolo[1,5-a]pyrimidine-3-carboxamide] | 31
Cn1cc(NC(=O)c2ccc3cccnn23)c(C(N)=O)n1 [Example 43, N-(3-carbamoyl-1-methyl-1H-pyrazol-4-yl)pyrrolo[1,2-b]pyridazine-7-carboxamide trifluoroacetate] | 27
NC(=O)c1nn(-c2cccnc2)cc1NC(=O)c1cnn2cccnc12 [Example 44, N-(3-carbamoyl-1-pyridin-3-yl-1H-pyrazol-4-yl)pyrazolo[1,5-a]pyrimidine-3-carboxamide] | 59
NC(=O)c1cc(S(N)(=O)=O)c(Cl)cc1NC(=O)c1cnn2cccnc12 [Example 54, N-(2-carbamoyl-5-chloro-4-sulfamoylphenyl)pyrazolo[1,5-a]pyrimidine-3-carboxamide trifluoroacetate] | 310
CN1CCCC(Cn2cc(NC(=O)c3cnn4ccc(N[C@@H]5CCCC[C@@H]5N)nc34)c(C(N)=O)n2)C1 (stereo partly drawn) [Example 25, 5-{[(1R,2S)-2-aminocyclohexyl]amino}-N-{3-carbamoyl-1-[(1-methylpiperidin-3-yl)methyl]-1H-pyrazol-4-yl}pyrazolo[1,5-a]pyrimidine-3-carboxamide trifluoroacetate] | 2
NC(=O)c1nn(-c2cccnc2)cc1NC(=O)c1cnn2ccc(N3CCNCC3)nc12 [Example 36, N-(3-carbamoyl-1-pyridin-3-yl-1H-pyrazol-4-yl)-5-piperazin-1-ylpyrazolo[1,5-a]pyrimidine-3-carboxamide trifluoroacetate] | 33
Cn1cc(NC(=O)c2cnn3ccc(N[C@H]4CCS(=O)(=O)C[C@H]4N)nc23)c(C(N)=O)n1 (relative stereo) [Example 4, 5-{[cis-3-amino-1,1-dioxidotetrahydro-2H-thiopyran-4-yl]amino}-N-(3-carbamoyl-1-methyl-1H-pyrazol-4-yl)pyrazolo[1,5-a]pyrimidine-3-carboxamide trifluoroacetate] | 5
